Where a name gives a salt, the structure may show the parent alone.
Biological target: T1, PDE7A1 (Homo sapiens, UniProt Q13946)
T1 construct: made in house; host or cells: Sf21 insect cells (baculovirus expression system)
Assay: In vitro inhibition of phosphodiesterase 7 (enzymatic activity, cAMP substrate 50 nM)
Assay type: biochemical
Conditions: PDE7A1 expressed in Sf 21 insect cells; cAMP 50 nM; reaction 10 minutes; read-out: IC50 (PDE7)
Experimental: The capacity of the compounds of the invention to inhibit cyclic nucleotide phosphodiesterases was evaluated by measuring their IC50 (concentration necessary to inhibit the enzymatic activity by 50%).
PDE3A3, PDE4D3, and PDE7A1 were cloned and expressed in insect cells Sf 21 using the baculovirus expression system. The source of PDE103 and of PDE503 were human cell lines (respectively TPH1 human monocytes and MCF7 human breast adenocarcinoma). The various types of phosphodiesterases were obtained partially purified on an anion exchange column (Mono Q) according to a method adapted from Lavan B. E., Lakey T., Houslay M.D., Biochemical Pharmacology, 1989;38(22):4123-4136.
Measurement of the enzymatic activity for the various types of PDE was then made according to a method adapted from Thompson W. J. et al., Advances in Cyclic Nucleotide Research, ed. G. Brooker et al. New York: Raven Press, 1979;10:69-92.
The substrate used was cGMP for PDE1 and PDE5 and cAMP for PDE3, PDE4, and PDE7. The substrate concentration was 0.2 μM for PDE1, PDE3, and PDE5, 0.25 μM for PDE4, and 50 nM for PDE7.
The enzymatic reaction was stopped after 1 hour for PDE1, PDE3, and PDE5 and 10 minutes for PDE4 and PDE7.

T1 sequence (Q13946 whole entry, species assumed): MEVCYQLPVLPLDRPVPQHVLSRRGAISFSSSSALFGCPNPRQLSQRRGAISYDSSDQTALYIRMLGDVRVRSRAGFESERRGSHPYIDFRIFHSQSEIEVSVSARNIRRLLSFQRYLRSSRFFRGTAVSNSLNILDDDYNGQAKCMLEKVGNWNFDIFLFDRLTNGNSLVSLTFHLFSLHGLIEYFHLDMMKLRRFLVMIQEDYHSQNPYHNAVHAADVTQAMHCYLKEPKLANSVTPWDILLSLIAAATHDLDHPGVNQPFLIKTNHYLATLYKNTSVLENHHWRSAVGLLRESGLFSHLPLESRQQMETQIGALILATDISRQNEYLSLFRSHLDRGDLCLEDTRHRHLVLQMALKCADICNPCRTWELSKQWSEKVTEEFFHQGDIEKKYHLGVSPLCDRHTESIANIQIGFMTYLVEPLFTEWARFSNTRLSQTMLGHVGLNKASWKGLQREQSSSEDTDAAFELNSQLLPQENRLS

First: Cn1nc(-c2cccc(Cl)c2)s/c1=N\C1CCCCC1 [Example I13, [5-(3-Chloro-phenyl)-3-methyl-3H-[1,3,4]thiadiazol-2-ylidene]-cyclohexyl-amine]
Second: Cn1nc(-c2cccc(O)c2)s/c1=N\C1CCCCC1 [Example I36, 3-(5-Cyclohexylimino-4-methyl-4,5-dihydro-[1,3,4]thiadiazol-2-yl)-phenol]
The IC50 of the first is 2.4-fold higher: 700 nM for the first, 290 nM for the second.

Going from Cn1nc(-c2cccc(C(=O)O)c2)s/c1=N\C1CCCCC1 [I21,1, 3-(5-Cyclohexylimino-4-methyl-4,5-dihydro-[1,3,4]thiadiazol-2-yl)-benzoic acid] to Cn1nc(-c2ccc(C(=O)O)cc2)s/c1=N\C1CCCCC1 [I37,1, 4-(5-Cyclohexylimino-4-methyl-4,5-dihydro-[1,3,4]thiadiazol-2-yl)-benzoic acid], the IC50 falls from 870 nM to 550 nM (1.6-fold).

Compared with Cn1nc(-c2cc3cc(Cl)ccc3[nH]2)s/c1=N\C1CCCCC1 [Example I31, [5-(5-Chloro-1H-indol-2-yl)-3-methyl-3H-[1,3,4]thiadiazol-2-ylidene]-cyclohexyl-amine; compound with trifluoro-methanesulfonic acid], Cn1nc(-c2cc(Cl)cc(Cl)c2)s/c1=N\C1CCCCC1 [I17,1, Cyclohexyl-[5-(3,5-dichloro-phenyl)-3-methyl-3H-[1,3,4]thiadiazol-2-ylidene]-amine] is 5.7-fold higher in IC50: 230 nM for the first, 1300 nM for the second.

CN(C)c1ccc(-c2nn(C)/c(=N/C3CCCCC3)s2)cc1 [Example I29, [4-(5-Cyclohexylimino-4-methyl-4,5-dihydro-[1,3,4]thiadiazol-2-yl)-phenyl]-dimethyl-amine] and Cn1nc(-c2ccc(O)cc2)s/c1=N\C1CCCCC1 [Example I33, 4-(5-Cyclohexylimino-4-methyl-4,5-dihydro-[1,3,4]thiadiazol-2-yl)-phenol; compound with 1,1,1-trifluoro-methanesulfonic acid] are within 1.5-fold of each other in IC50: 300 nM for the first, 240 nM for the second.

Compared with COc1cc(-c2nn(C)/c(=N/C3CCCCC3)s2)cc(O)c1OC [I18,4, 5-(5-Cyclohexylimino-4-methyl-4,5-dihydro[1,3,4]thiadiazol-2-yl)-2,3-dimethoxy-phenol;compound with trifluoro-methanesulfonic Acid], COc1cc(-c2nn(C)/c(=N/C3CCCCC3)s2)cc(OC)c1OC [Example I41, Cyclohexyl-[3-methyl-5-(3,4,5-trimethoxy-phenyl)-3H-[1,3,4]thiadiazol-2-ylidene]-amine] is 14-fold higher in IC50: 92 nM for the first, 1300 nM for the second. The first is the more potent here.

First: Cn1nc(-c2ccc3c(c2)OCO3)s/c1=N\C1CCCCC1 [Example I40, (5-Benzo[1,3]dioxol-5-yl-3-methyl-3H-[1,3,4]thiadiazol-2-ylidene)-cyclohexyl-amine]
Second: Cn1nc(-c2ccc(O)c(O)c2)s/c1=N\C1CCCCC1 [Example I22, 4-(5-Cyclohexylimino-4-methyl-4,5-dihydro-[1,3,4]thiadiazol-2-yl)-benzene-1,2-diol; compound with trifluoro methanesulfonic acid]
The IC50 of the first is 2.2-fold lower: 450 nM for the first, 1000 nM for the second.

Going from Cn1nc(-c2ccc(C(=O)Nc3nn[nH]n3)cc2)s/c1=N\C1CCCCC1 [I37,4, 4-(5-Cyclohexylimino-4-methyl-4,5-dihydro-[1,3,4]thiadiazol-2-yl)-N-(2H-tetrazol-5-yl)-benzamide hydrochloride salt] to CCNC(=O)c1ccc(-c2nn(C)/c(=N/C3CCCCC3)s2)cc1 [I37,8, 4-(5-Cyclohexylimino-4-methyl-4,5-dihydro[1,3,4]thiadiazol-2-yl)-N-ethyl-benzamide], the IC50 falls from 150 nM to 64 nM (2.3-fold). The second is the more potent here.

Compared with COc1ccc(-c2nn(C)/c(=N/C3CCCCC3)s2)cc1O [Example I32, 5-(5-Cyclohexylimino-4-methyl-4,5-dihydro-[1,3,4]thiadiazol-2-yl)-2-methoxy-phenol; compound with 1,1,1-trifluoro-methanesulfonic acid], COc1cc(-c2nn(C)/c(=N/C3CCCCC3)s2)ccc1O [Example I27, 4-(5-Cyclohexylimino-4-methyl-4,5-dihydro-[1,3,4]thiadiazol-2-yl)-2-methoxy-phenol] is 2-fold higher in IC50: 230 nM for the first, 460 nM for the second. The first is the more potent here.

Cn1nc(-c2cnccn2)s/c1=N\C1CCCCC1 [Example I25, Cyclohexyl-(3-methyl-5-pyrazin-2-yl-3H-[1,3,4]thiadiazol-2-ylidene)-amine] and Cn1nc(-c2cccnc2)s/c1=N\C1CCCCC1 [Example I38, Cyclohexyl-(3-methyl-5-pyridin-3-yl-3H-[1,3,4]thiadiazol-2-ylidene)-amine] are within 1.5-fold of each other in IC50: 470 nM for the first, 340 nM for the second.

CN(C)CCNC(=O)c1ccc(-c2nn(C)/c(=N/C3CCCCC3)s2)cc1 [I37,9, 4-(5-Cyclohexylimino-4-methyl-4,5-dihydro[1,3,4]thiadiazol-2-yl)-N-(2-dimethylamino-ethyl)-benzamide] and CC(C)NC(=O)c1ccc(-c2nn(C)/c(=N/C3CCCCC3)s2)cc1 [I37,7, 4-(5-Cyclohexylimino-4-methyl-4,5-dihydro[1,3,4]thiadiazol-2-yl)-N-isopropyl-benzamide] are within 1.5-fold of each other in IC50: 75 nM for the first, 86 nM for the second.

COc1ccc(-c2nn(C)/c(=N/C3CCCCC3)s2)cc1Br [Example I35, [5-(3-Bromo-4-methoxy-phenyl)-3-methyl-3H-[1,3,4]thiadiazol-2-ylidene]-cyclohexyl-amine] and COc1ccc(-c2nn(C)/c(=N/C3CCCCC3)s2)cc1OC [Example I34, Cyclohexyl-[5-(3,4-dimethoxy-phenyl)-3-methyl-3H-[1,3,4]thiadiazol-2-ylidene]-amine] are within 1.5-fold of each other in IC50: 580 nM for the first, 630 nM for the second.

Going from Cn1nc(-c2ccc(Cl)cc2)s/c1=N\C1CC2CCC1C2 (centres unmarked) [Example I7, Bicyclo[2.2.1]hept-2-yl-[5-(4-chloro-phenyl)-3-methyl-3H-[1,3,4]thiadiazol-2-ylidene]-amine] to Cn1nc(-c2ccc(Cl)cc2)s/c1=N\[C@@H]1CCCC[C@H]1O (relative stereo) [Example I8, (1R*,2R*)-2-[5-(4-Chloro-phenyl)-3-methyl-3H-[1,3,4]thiadiazol-2-ylideneamino]-cyclohexanol], the IC50 falls from 1050 nM to 450 nM (2.3-fold). The second is the more potent here.

Cn1nc(-c2ccc(Cl)cc2)s/c1=N\c1cccc(C(=O)O)c1 [Example I1, 3-[5-(4-Chloro-phenyl)-3-methyl-3H-[1,3,4]thiadiazol-2-ylideneamino]-benzoic acid] and Cn1nc(-c2ccc(S(C)(=O)=O)cc2)s/c1=N\c1cccc(C(=O)O)c1 [Example I4] are the same in IC50: 150 nM for the first, 150 nM for the second.

Compared with Cn1nc(-c2ccc(-c3ccccn3)s2)s/c1=N\C1CCCCC1 [I18,2, Cyclohexyl-[3-methyl-5-(5-pyridin-2-yl-thiophen-2-yl)-3H-[1,3,4]thiadiazol-2-ylidene]-amine], Cn1nc(-c2ccccc2Cl)s/c1=N\C1CCCCC1 [I10,1, [5-(2-Chloro-phenyl)-3-methyl-3H-[1,3,4]thiadiazol-2-ylidene]-cyclohexyl-amine] is 4.1-fold higher in IC50: 320 nM for the first, 1300 nM for the second.

Going from Cn1nc(-c2ccc(C#N)cc2)s/c1=N\C1CCCCC1 [Example I14, 4-(5-Cyclohexylimino-4-methyl-4,5-dihydro-[1,3,4]thiadiazol-2-yl)-benzonitrile] to Cn1nc(-c2ccc(C(F)(F)F)cc2)s/c1=N\C1CCCCC1 [Example I11, Cyclohexyl-[3-methyl-5-(4-trifluoromethyl-phenyl)-3H-[1,3,4]thiadiazol-2-ylidene]-amine], the IC50 rises from 270 nM to 980 nM (3.6-fold).

First: Cn1nc(-c2ccc(C(=O)Nc3cccc4cccnc34)cc2)s/c1=N\C1CCCCC1 [I37,5, 4-(5-Cyclohexylimino-4-methyl-4,5-dihydro[1,3,4]thiadiazol-2-yl)-N-quinolin-8-yl-benzamide]
Second: Cn1nc(-c2ccc3cccc(O)c3n2)s/c1=N\C1CCCCC1 [Example I24, 2-(5-Cyclohexylimino-4-methyl-4,5-dihydro-[1,3,4]thiadiazol-2-yl)-quinolin-8-ol]
The IC50 of the first is 3.9-fold lower: 93 nM for the first, 360 nM for the second.

Compared with COc1ccc(/C=C/c2nn(C)/c(=N/C3CCCCC3)s2)cc1O [Example I26, 5-[(E)-2-(5-Cyclohexylimino-4-methyl-4,5-dihydro-[1,3,4]thiadiazol-2-yl)-vinyl]-2-methoxy-phenol], Cn1nc(-c2cccc(S(N)(=O)=O)c2)s/c1=N\C1CCCCC1 [Example I39, 3-(5-Cyclohexylimino-4-methyl-4,5-dihydro-[1,3,4]thiadiazol-2-yl)-benzenesulfonamide] is 2-fold lower in IC50: 400 nM for the first, 200 nM for the second. The second is the more potent here.

Cn1nc(-c2ccc(S(N)(=O)=O)cc2)s/c1=N\C1CCCCC1 [Example I30, 4-(5-Cyclohexylimino-4-methyl-4,5-dihydro-[1,3,4]thiadiazol-2-yl)-benzenesulfonamide] and Cn1nc(-c2ccc(S(C)(=O)=O)cc2)s/c1=N\C1CCCCC1 [Example I15, Cyclohexyl-[5-(4-methanesulfonyl-phenyl)-3-methyl-3H-[1,3,4]thiadiazol-2-ylidene]-amine] are the same in IC50: 140 nM for the first, 140 nM for the second.

First: CN1CCC(N(C)C(=O)c2ccc(-c3nn(C)/c(=N/C4CCCCC4)s3)cc2)CC1 [I37,11, 4-(5-Cyclohexylimino-4-methyl-4,5-dihydro-[1,3,4]thiadiazol-2-yl)-N-methyl-N-(1-methyl-piperidin-4-yl)-benzamide]
Second: Cn1nc(-c2ccncc2)s/c1=N\C1CCCCC1 [Example I12, Cyclohexyl-(3-methyl-5-pyridin-4-yl-3H-[1,3,4]thiadiazol-2-ylidene)-amine]
The IC50 of the first is 4-fold lower: 72 nM for the first, 290 nM for the second.

— US20030045557A1, “Thiadiazoles and oxadiazoles and their use as phosphodiesterase-7 inhibitors” (priority 2000, published 2003)
